From US9822114B2, “Tricyclic oxazolidinone antibiotic compounds” (Idorsia Pharmaceuticals Ltd, priority 2008, dated 2017)
Converted amounts (≈) assume the structure as drawn.

System: M. catarrhalis A894
Test: Minimal inhibitory concentration (MIC), microdilution method in cation-adjusted Mueller-Hinton Broth (CLSI M7-A7)
Type: cell-based
Settings: Moraxella catarrhalis, strain A894
Protocol: Minimal inhibitory concentrations (MICs; mg/1) were determined in cation-adjusted Mueller-Hinton Broth by a microdilution method following the description given in “Methods for Dilution Antimicrobial Susceptibility Tests for Bacteria that Grow Aerobically”, Approved standard, 7th ed., Clinical and Laboratory Standards Institute (CLSI) Document M7-A7, Wayne, Pa., USA, 2006.

Structure (SMILES)	MIC [µg/mL]
O=C1CSc2ccc(N3C[C@H](CNCCC4CN5C(=O)CCc6ccc(F)c4c65)OC3=O)cc2N1 (mixture of isomers) [Example 22, (1RS)-9-fluoro-1-(2-{[(S)-2-oxo-3-(3-oxo-3,4-dihydro-2H-benzo[1,4]thiazin-6-yl)-oxazolidin-5-ylmethyl]-amino}-ethyl)-1,2,5,6-tetrahydro-pyrrolo[3,2,1-ij]quinolin-4-one]	≤ 0.031
Cc1ccc(N2C[C@@H](CNCCC3CN4C(=O)CCc5ccc(F)c3c54)OC2=O)cc1F (mixture of isomers) [Example 27, (1RS)-9-fluoro-1-(2-{[(R)-3-(3-fluoro-4-methyl-phenyl)-2-oxo-oxazolidin-5-ylmethyl]-amino}-ethyl)-1,2,5,6-tetrahydro-pyrrolo[3,2,1-ij]quinolin-4-one]	0.5
O=C1CSc2ccc(N3C[C@H](CCCN[C@H]4Cn5c(=O)ccc6c(CO)ccc4c65)OC3=O)cc2N1 [Example 120, (R)-7-hydroxymethyl-1-{3-[(S)-2-oxo-3-(3-oxo-3,4-dihydro-2H-benzo[1,4]thiazin-6-yl)-oxazolidin-5-yl]-propylamino}-1,2-dihydro-pyrrolo[3,2,1-ij]quinolin-4-one]	0.125 (≈ 0.247 µM)
O=C1COc2ccc(N3C[C@H](CCN[C@@H]4Cn5c(=O)ccc6cccc4c65)OC3=O)cc2N1 [Example 89, (S)-1-{2-[(S)-2-oxo-3-(3-oxo-3,4-dihydro-2H-benzo[1,4]oxazin-6-yl)-oxazolidin-5-yl]-ethylamino}-1,2-dihydro-pyrrolo[3,2,1-ij]quinolin-4-one]	0.063 (≈ 0.141 µM)
N#Cc1ccc2ccc(=O)n3c2c1C(NCCC[C@@H]1CN(c2ccc4c(n2)NC(=O)CS4)C(=O)O1)C3 (mixture of isomers) [Example 118, (RS)-4-oxo-1-{3-[(R)-2-oxo-3-(3-oxo-3,4-dihydro-2H-pyrido[3,2-b][1,4]thiazin-6-yl)-oxazolidin-5-yl]-propylamino}-1,2-dihydro-4H-pyrrolo[3,2,1-ij]quinoline-9-carbonitrile]	≤ 0.031
O=C1CSc2ccc(N3C[C@@H](CCCN[C@H]4Cn5c(=O)ccc6nccc4c65)OC3=O)cc2N1 [Example 18, (4R)-4-{3-[(R)-2-oxo-3-(3-oxo-3,4-dihydro-2H-benzo[1,4]thiazin-6-yl)-oxazolidin-5-yl]-propylamino}-4,5-dihydro-pyrrolo[3,2,1-de][1,5]naphthyridin-7-one]	≤ 0.031
O=C1COc2ccc(N3C[C@@H](CCNCC4Cn5c(=O)ccc6ccc(F)c4c65)OC3=O)cc2N1 (mixture of isomers) [Example 2, (1RS)-9-fluoro-1-({2-[(R)-2-oxo-3-(3-oxo-3,4-dihydro-2H-benzo[1,4]oxazin-6-yl)-oxazolidin-5-yl]-ethylamino}-methyl)-1,2-dihydro-pyrrolo[3,2,1-ij]quinolin-4-one]	≤ 0.031
O=C1CSc2ccc(N3C[C@@H](CCCN[C@@H]4Cn5c(=O)cnc6ccc(F)c4c65)OC3=O)cc2N1 [Example 58, (S)-7-fluoro-6-{3-[(R)-2-oxo-3-(3-oxo-3,4-dihydro-2H-benzo[1,4]thiazin-6-yl)-oxazolidin-5-yl]-propylamino}-5,6-dihydro-pyrrolo[1,2,3-de]quinoxalin-3-one]	≤ 0.031

Continued, values first:

MIC [µg/mL]	Structure (SMILES)
≤ 0.031	O=C1CSc2ccc(N3C[C@@H](CCCNC4Cn5c(=O)ccc6ccc(F)c4c65)OC3=O)nc2N1 (mixture of isomers) [Example 125, (RS)-9-fluoro-1-{3-[(R)-2-oxo-3-(3-oxo-3,4-dihydro-2H-pyrido[3,2-b][1,4]thiazin-6-yl)-oxazolidin-5-yl]-propylamino}-1,2-dihydro-pyrrolo[3,2,1-ij]quinolin-4-one]
≤ 0.031	O=C1CSc2ccc(N3C[C@@H](CCCN[C@H]4Cn5c(=O)ccc6ncc(F)c4c65)OC3=O)nc2N1 [Example 142, (R)-3-fluoro-4-{3-[(R)-2-oxo-3-(3-oxo-3,4-dihydro-2H-pyrido[3,2-b][1,4]thiazin-6-yl)-oxazolidin-5-yl]-propylamino}-4,5-dihydro-pyrrolo[3,2,1-de][1,5]naphthyridin-7-one]
≤ 0.031	O=C1CSc2ccc(N3C[C@@H](CCNCC4Cn5c(=O)ccc6ccc(F)c4c65)OC3=O)nc2N1 (mixture of isomers) [Example 197, (RS)-9-fluoro-1-({2-[(R)-2-oxo-3-(3-oxo-3,4-dihydro-2H-pyrido[3,2-b][1,4]thiazin-6-yl)-oxazolidin-5-yl]-ethylamino}-methyl)-1,2-dihydro-pyrrolo[3,2,1-ij]quinolin-4-one]
≤ 0.031	O=C1COc2ccc(N3C[C@H](CCCNC4Cn5c(=O)ccc6ccc(F)c4c65)OC3=O)nc2N1 (mixture of isomers) [Example 124, (RS)-9-fluoro-1-{3-[(S)-2-oxo-3-(3-oxo-3,4-dihydro-2H-pyrido[3,2-b][1,4]oxazin-6-yl)-oxazolidin-5-yl]-propylamino}-1,2-dihydro-pyrrolo[3,2,1-ij]quinolin-4-one]
≤ 0.031	O=C1COc2ccc(N3C[C@H](CCCN[C@H]4Cn5c(=O)ccc6ccc(F)c4c65)OC3=O)nc2N1 [Example 193, (R)-9-fluoro-1-{3-[(S)-2-oxo-3-(3-oxo-3,4-dihydro-2H-pyrido[3,2-b][1,4]oxazin-6-yl)-oxazolidin-5-yl]-propylamino}-1,2-dihydro-pyrrolo[3,2,1-ij]quinolin-4-one]
≤ 0.031	O=C1COc2ccc(N3C[C@@H](CCNCC4Cn5c(=O)cnc6cccc4c65)OC3=O)cc2N1 (mixture of isomers) [Example 155, (RS)-6-({2-[(R)-2-oxo-3-(3-oxo-3,4-dihydro-2H-benzo[1,4]oxazin-6-yl)-oxazolidin-5-yl]-ethylamino}-methyl)-5,6-dihydro-pyrrolo[1,2,3-de]quinoxalin-3-one]
≤ 0.031	O=C1COc2ccc(N3C[C@H](CCCN[C@H]4Cn5c(=O)ccc6ncc(F)c4c65)OC3=O)nc2N1 [Example 144, (R)-3-fluoro-4-{3-[(S)-2-oxo-3-(3-oxo-3,4-dihydro-2H-pyrido[3,2-b][1,4]oxazin-6-yl)-oxazolidin-5-yl]-propylamino}-4,5-dihydro-pyrrolo[3,2,1-de][1,5]naphthyridin-7-one]
≤ 0.031	O=C1CSc2ccc(N3C[C@@H](CCCNC4Cn5c(=O)ccc6ccc(Cl)c4c65)OC3=O)cc2N1 (mixture of isomers) [Example 178, (RS)-9-chloro-1-{3-[(R)-2-oxo-3-(3-oxo-3,4-dihydro-2H-benzo[1,4]thiazin-6-yl)-oxazolidin-5-yl]-propylamino}-1,2-dihydro-pyrrolo[3,2,1-ij]quinolin-4-one]
≤ 0.031	CN1CC(=O)N2CC(NCCC[C@@H]3CN(c4ccc5c(n4)NC(=O)CS5)C(=O)O3)c3c(F)ccc1c32.Cl.Cl (mixture of isomers) [Example 201, (RS)-7-fluoro-6-{3-[(R)-2-oxo-3-(3-oxo-3,4-dihydro-2H-pyrido[3,2-b][1,4]thiazin-6-yl)-oxazolidin-5-yl]-propylamino}-1-methyl-1,2,5,6-tetrahydro-pyrrolo[1,2,3-de]quinoxalin-3-one dihydrochloride]
≤ 0.031	O=C1CSc2ccc(N3C[C@@H](CCCNC4Cn5c(=O)ccc6ccc(Cl)c4c65)OC3=O)nc2N1 (mixture of isomers) [Example 177, (RS)-9-chloro-1-{3-[(R)-2-oxo-3-(3-oxo-3,4-dihydro-2H-pyrido[3,2-b][1,4]thiazin-6-yl)-oxazolidin-5-yl]-propylamino}-1,2-dihydro-pyrrolo[3,2,1-ij]quinolin-4-one]
